{
  "source": "patent US20190117596A1",
  "about": "(WAYNE STATE UNIVERSITY, priority 2016, published 2019)",
  "key": {"IL-6 expression": {"system": "IL-6 expression", "assay": "TGF-β-induced IL-6 expression in H1793 lung adenocarcinoma cells (qPCR)", "format": "cell-based, human", "conditions": "CAY10444 10 μM", "protocol": "FIGS. 14A-14E. S1P3 regulates the TGF-β-stimulated IL-6 expression. (14A) H1793 lung adenocarcinoma cells were pre-treated for 30 min with inhibitor of TGF-β receptor I (SB4, SB431542, 10 uM) or Smad3 (SIS3, 2 uM), followed by stimulating with TGF-β (1 ng/ml) for 4 hrs. Levels of IL-6 were analyzed by qPCR. […] The S1P-induced IL-6 expression is diminished when S1PR3 were knocked-down. (14E) HBEC2-KT normal lung epithelial cells were transduced with adenoviral particles carrying S1PR3 (Ad-S1PR3) or β-galactosidase (Ad-Ctrl, 200 m.o.i.) for overnight, followed by stimulating with or without S1P (200 nM, 4 hrs). mRNA levels of IL-6 were measured by qPCR analysis. Data are mean±SD from a representative experiment (n=3). Each experiment was repeated at least one time with similar results. Data are mean+S.D. (n=3). *, p<0.05; NS, non-statistic significance; t-test.\n(§1) Real-time PCR Analysis. Total RNA was isolated using TRIzol reagent (Invitrogen) and was reverse-transcribed with an oligo(dT) primer (Promega) by Moloney Murine Leukemia Virus (M-MLV) Reverse Transcriptase (Promega) for first-strand cDNA synthesis. For real-time PCR quantitation, 50 ng of reversely transcribed cDNAs were amplified with the ABI 7500 system (Applied Biosystems) in the presence of TaqMan DNA polymerase. […]"}, "S1PR3 expression [1]": {"system": "S1PR3 expression", "assay": "S1PR3 up-regulation in K-Ras G12V-expressing HEK293 cells (qPCR)", "format": "cell-based", "conditions": "HEK293 pBabe-K-Ras G12V, anti-TGF-β 10 μg/ml, SB-431542 10 μM, SIS3 2 μM, 37° C., 24 h", "protocol": "FIGS. 3A-3F. TGF-β/SMAD3 signaling contributes to oncogenic K-Ras mutant-stimulated S1PR3 up-regulation. (3A), P, potential SMAD3 binding sites in S1PR3 promoter. 0, transcription initiation site. (3B-3D), HEK293 cells were stably transfected with pBabe-K-Ras^G12V or pBabe control vector. Levels of total cellular K-Ras (3B), S1PRs (3C), and TGF-β (3D) were measured by qPCR analysis. (3E), HEK293 cells transfected with pBabe-K-Ras^G12V or pBabe control vector were incubated with anti-TGF-β (Cell Signaling, antibody number 3711, 10 μg/ml) or irrelevant normal rabbit IgG (10 μg/ml) at 37° C. for 24 h. Levels of S1PR3 were quantitated by qPCR. (3F), HEK293 cells transfected with pBabe-K-Ras^G12V or pBabe control vector were treated with or without SB-431542 (SB4) (inhibitor of TGF-β receptor 1, 10 μM) or SIS3 (inhibitor of SMAD3, 2 μM) at 37° C. for 24 h. Levels of S1PR3 were quantitated by qPCR. **, p<0.01, n=3, Student's t test.\nas §1"}, "S1PR3 expression [2]": {"system": "S1PR3 expression", "assay": "TGF-β-stimulated S1PR3 up-regulation in HBEC2-KT cells (qPCR)", "format": "cell-based, human", "conditions": "30 min pretreatment, SB-431542 10 μM, SIS3 2 μM, SB-203580 50 nM, BAY11-7085 10 μM, JNK inhibitor II 10 μM, TGF-β 4 h", "protocol": "FIGS. 4A-4H. TGF-β/SMAD3 signaling axis up-regulates S1PR3. (4A), HBEC2-KT cells were treated with TGF-β (1 ng/ml) for various times. mRNA levels of S1P receptors were measured by qPCR analysis. Data are mean±S.D. of triplicate determinations. *, p<0.05, Student's t test. (4B), protein levels of S1PR3 in TGF-β (1 ng/ml)-treated HBEC2-KT cells. Lower panel, Western blot intensity was quantitated by National Institutes of Health ImageJ. Data (normalized to actin) are mean±S.D. of triplicate determinations. * and **, p<0.05 and 0.01, respectively, Student's t test. (4C), CHO cells were transduced with adenoviral particles (multiplicity of infection of 200) carrying S1PR1, S1PR2, or S1PR3 vector for 20 h as previously described (8). Extracts were blotted with antibody against S1PR3 (Cayman), S1PR2 (Cayman), or S1PR1 (E49) (8). […] Medium was quantitated for S1P, ceramide (Cer), and sphingomyelin (SPM) by LC-MS/MS (29, 46). […] S1PR3 levels were measured by qPCR, following TGF-β treatment (4 h). […] Activation of p38, JNK, and NFκB was measured by Western blotting with phospho-p38 (P-p38), phospho-JNK (P-p54^JNK and P-p46^JNK), and phospho-IκBα (p-IκBα). […]\nReal-time PCR Analysis. […] For real-time PCR quantitation, 50 ng of reversely transcribed cDNAs were amplified with the ABI 7500 system (Applied Biosystems) in the presence of TaqMan DNA polymerase. […]"}, "S1PR1": {"molecular_target": "T1, S1PR1 (Homo sapiens, UniProt P21453)", "T1 construct": "expressed in transfected cells; host or cells: CHO cells, adenoviral transduction", "assay": "S1P-stimulated ERK1/2 activation in CHO cells transduced with S1PR1 (Western blot p-ERK)", "format": "cell-based", "conditions": "TY-52156 10 μM, 10 min, then S1P 200 nM", "protocol": "(§2) FIGS. 7A-7E. Inhibition of S1PR3 diminishes lung carcinoma growth. (7A), C57BL/6 mice were subcutaneously inoculated with LLC cells (1×10^6 cells). 1 week later, mice were intraperitoneally administered with VPC23019 (1.5 mg/kg of body weight) or control vehicle every 3 days. (7B), S1PR1 and S1PR3 levels in Lewis lung carcinoma cells. -ve, PCR reactions were performed without cDNA. **, p<0.01, n=6, ANOVA. (7C), CHO cells were transduced with adenoviral particles carrying S1PR1, S1PR2, S1PR3, or pcDNA control vector. Cells were serum-starved for 24 h. […] ERK1/2 activation (p-ERK) was measured by Western blotting analysis. (7D), C57BL/6 mice were subcutaneously inoculated with LLC cells (1×10^6 cells). […] (7E), tumor weights were measured 24 days after implantation. **, p<0.01, n=6, ANOVA.\n(§3) Western Blotting Analysis. Protein extraction and Western blotting were performed as described (11). Briefly, cells were collected in ice-cold PBS using cell scrapers followed by centrifugation (500×g, 5 min). […] After centrifugation at 15,000×g for 20 min, supernatant was collected and protein concentration was measured using a bicinchoninic acid protein assay kit with BSA as standard. […]"}, "S1PR2": {"molecular_target": "T2, S1PR2 (Homo sapiens, UniProt O95136)", "T2 construct": "expressed in transfected cells; host or cells: CHO cells, adenoviral transduction", "assay": "S1P-stimulated ERK1/2 activation in CHO cells transduced with S1PR2 (Western blot p-ERK)", "format": "cell-based", "conditions": "TY-52156 10 μM, 10 min, then S1P 200 nM", "protocol": "as §2, §3"}, "[3]": {"system": "Lewis lung carcinoma cells", "assay": "Subcutaneous Lewis lung carcinoma tumor growth in C57BL/6 mice", "format": "in vivo, mouse", "conditions": "s.c. LLC cells", "protocol": "as §2\nTumor Growth and Lung Colonization in Mice. All animal procedures were performed according to the National Institutes of Health and institutional guidelines, and were approved by the Wayne State University Animal Use and Care Committee. For subcutaneous implantation, lung carcinoma cells were adjusted to 1×10^7 cells/ml. Mice were injected with 0.1 ml of cell suspension into the subcutaneous dorsa in the proximal midline. […] Tumor volume was measured in two dimensions using calipers, and volume was determined using the formula width 2×length×0.52 (49). […]"}, "lung adenocarcinoma": {"system": "lung adenocarcinoma", "assay": "Lung adenocarcinoma in LSL-KRas G12D mouse model (Ad-Cre)", "format": "in vivo", "conditions": "Ad-Cre injected mice; 10 mg/kg i.p. every two days; lungs analyzed 2 months later", "protocol": "FIGS. 8A-AD. […] Mice were injected with or without Ad-Cre. Lungs were analyzed for adenocarcinoma 2 months later. (8A) LSL-KRas^G12D injected with Ad-Cre. (8B) LSL-KRas^G12D injected with Ad-Cre. […] (8C) LSL-KRas^G12D mice injected with Ad-Ctrl. (8D) wild-type C57BL/6 mice injected with Ad-Cre. Arrows, lung adenocarcinomas. Scale bar=[…]."}, "[4]": {"system": "human lung adenocarcinoma cells exhibiting K-Ras G12D mutation", "assay": "Proliferation and colony formation of cultured lung adenocarcinoma cells", "format": "cell-based"}},
  "note": "“Also recorded” adds a separate entry of the source.",
  "data": [
    {"smiles": "CCCCCCCCCCCC1N[C@H](C(=O)O)CS1", "note": "(some centres unmarked) [CAY10444]", "values": [
      {"measurement": "TGF-β-induced IL-6 expression", "setting": "IL-6 expression", "result": "significantly diminished"}
    ]},
    {"smiles": "NC(=O)c1ccc(-c2nc(-c3ccc4c(c3)OCO4)c(-c3ccccn3)[nH]2)cc1", "note": "[SB-431542]", "values": [
      {"measurement": "S1PR3 up-regulation in K-Ras G12V-expressing cells", "setting": "S1PR3 expression [1]", "result": "abrogated"},
      {"measurement": "TGF-β-stimulated S1PR3 up-regulation", "setting": "S1PR3 expression [2]", "result": "abrogated"}
    ]},
    {"smiles": "COc1cc2c(cc1OC)CN(C(=O)/C=C/c1c(-c3ccccc3)n(C)c3ncccc13)CC2", "note": "[SIS3]", "values": [
      {"measurement": "S1PR3 up-regulation in K-Ras G12V-expressing cells", "setting": "S1PR3 expression [1]", "result": "abrogated"},
      {"measurement": "TGF-β-stimulated S1PR3 up-regulation", "setting": "S1PR3 expression [2]", "result": "abrogated"}
    ]},
    {"smiles": "CC(C)(C)C(=O)/C(=N/c1ccc(Cl)cc1)NNc1ccc(Cl)cc1", "note": "[TY-52156, 1-(4-chlorophenylhydrazono)-1-(4-chlorophenylamino)-3,3-dimethyl-2-butanone]", "values": [
      {"measurement": "S1P/S1PR1-stimulated ERK1/2 activation", "setting": "S1PR1", "result": "had no effect"},
      {"measurement": "S1P/S1PR2-stimulated ERK1/2 activation", "setting": "S1PR2", "result": "had no effect"},
      {"measurement": "growth of Lewis lung carcinoma (tumor volume, tumor weight 24 days after implantation)", "setting": "[3]; 10 mg/kg intraperitoneally every 2 days from 1 week after inoculation, 10 mg/kg", "result": "significantly suppressed; also recorded: significantly diminished"},
      {"measurement": "lung adenocarcinoma in LSL-KRas G12D mouse model", "setting": "lung adenocarcinoma", "result": "significantly inhibits"},
      {"measurement": "proliferation and colony formation", "setting": "[4]", "result": "effective in inhibiting"}
    ]},
    {"smiles": "CCCCCCCCc1cccc(NC(=O)[C@H](N)COP(=O)(O)O)c1", "note": "[VPC23019]", "values": [
      {"measurement": "tumor growth", "setting": "[3]; 1.5 mg/kg intraperitoneally every 3 days from 1 week after inoculation, 1.5 mg/kg", "result": "significantly inhibited; also recorded: significantly diminished"}
    ]}
  ]
}
